Reference: patent publication US11807612B2, “Heterocyclic compound and salt thereof, and luminescent substrate composition” (The University of Electro-Communications, priority 2020, dated 2023)

What was measured:
[1] = target: T1, Ppy luciferase (derived from North American firefly Photinus pyralis) (Photinus pyralis, UniProt P08659); experiment: Luminescence spectrum measurement of luminescent substrates with Ppy luciferase, ATP-Mg; format: biochemical; details: for peak top wavelength of luminescence spectrum: substrate solution 100 μM, 1 mg/mL Ppy luciferase, 200 μM ATP-Mg, KPB pH 8.0, room temperature, 180 seconds, FIG. 1
T1 construct: purchased Promega Corporation E1701
Procedure: The luminescent substrates represented by structural formulae (1-1) and (1-2) that were synthesized as described above, a luminescent substrate represented by the following structural formula (b), and natural firefly luciferin (LH2, produced by Wako Pure Chemical Industries, Ltd.) represented by the following structural formula (d) were each used to measure a luminescence spectrum. Note that the luminescent substrate represented by structural formula (b) was prepared in accordance with Example 1 of JP2014-218456A (PTL 2).
A weak emission fluorescence spectrometer AB-1850 produced by ATTO Corporation was used to measure a luminescence spectrum. Each measured spectrum is a spectrum that has been corrected for detector characteristics (data interval 0.25 nm, measurement range 400 nm to 750 nm).
Recombinant luciferase (QuantiLum® (QuantiLum is a registered trademark in Japan, other countries, or both), catalogue no. E1701) produced by Promega Corporation
After mixing 5 μL of KPB solution (pH 8.0, 500 mM), 5 μL of luminescent substrate solution (100 μM), 5 μL of 1 mg/mL Ppy luciferase solution, and 10 μL of 200 μM ATP-Mg solution at room temperature, luminescence spectrum measurement was performed for 180 seconds using the luminescence spectrum measurement apparatus (AB-1850). The luminescence intensity was compared by the peak top value at this time. The results are illustrated in FIG. 1 and FIG. 2.
FIG. 1 is a luminescence spectrum normalized to give a maximum value for luminescence intensity of 1, and FIG. 2 is a luminescence spectrum illustrating luminescence intensity at each wavelength.

firefly luciferase (Luc) = firefly luciferase (Luc) (Photinus pyralis, UniProt P08659); details: firefly luminescence system; background, PTL 1 to 3; cited from earlier work
Sequence of firefly luciferase (Luc) (P08659 whole entry): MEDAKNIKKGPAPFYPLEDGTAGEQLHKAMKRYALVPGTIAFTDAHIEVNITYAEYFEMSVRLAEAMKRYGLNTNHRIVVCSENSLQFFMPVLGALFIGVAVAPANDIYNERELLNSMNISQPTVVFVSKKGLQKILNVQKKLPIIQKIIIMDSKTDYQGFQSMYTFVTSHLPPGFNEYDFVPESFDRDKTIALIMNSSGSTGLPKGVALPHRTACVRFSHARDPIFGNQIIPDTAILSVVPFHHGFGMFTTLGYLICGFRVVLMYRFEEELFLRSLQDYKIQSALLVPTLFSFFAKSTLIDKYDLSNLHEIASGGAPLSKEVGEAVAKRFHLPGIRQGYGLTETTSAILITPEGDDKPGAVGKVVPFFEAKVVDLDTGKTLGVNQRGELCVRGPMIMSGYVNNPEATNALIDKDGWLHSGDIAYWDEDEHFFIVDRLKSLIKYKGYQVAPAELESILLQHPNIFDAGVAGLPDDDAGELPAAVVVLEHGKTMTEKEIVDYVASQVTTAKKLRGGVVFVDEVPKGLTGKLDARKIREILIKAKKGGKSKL

T1 sequence (P08659 whole entry): as above

| SMILES | luminescence intensity (peak top value) relative to luminescent substrate of structural formula (b) ([1]; same conditions, FIGS. 1 and 2) | luminescence intensity (peak top value) relative to natural firefly luciferin ([1]; same conditions, FIGS. 1 and 2) | luminescence wavelength compared with luminescent substrate of structural formula (b) ([1]; same conditions, FIGS. 1 and 2) | peak top wavelength of luminescence spectrum [1] | maximum wavelength of luminescence spectrum / wavelength of emitted light (firefly luciferase (Luc)) |
| --- | --- | --- | --- | --- | --- |
| CN(C)c1ncc(/C=C/C=C/C2=N[C@@H](C(=O)O)CS2)s1 [structural formula (1-1), (S)-2-((1E,3E)-4-(2-(dimethylamino)thiazol-5-yl)buta-1,3-dien-1-yl)-4,5-dihydrothiazole-4-carboxylic acid] | approximately four times higher | approximately half | shorter wavelength | approximately 630 nm |  |
| O=C(O)[C@H]1CSC(c2nc3ccc(O)cc3s2)=N1 [natural firefly luciferin, firefly luciferin] |  |  |  |  | approximately 560 nm |
| CN(C)c1ccc(/C=C/C=C/C2=N[C@@H](C(=O)O)CS2)cc1 [structural formula (a)] |  |  |  |  | roughly 670 nm |
| CN(C)c1cnc(/C=C/C=C/C2=N[C@@H](C(=O)O)CS2)s1 [structural formula (1-2), (S)-2-((1E,3E)-4-(5-(dimethylamino)thiazol-2-yl)buta-1,3-dien-1-yl)-4,5-dihydrothiazole-4-carboxylic acid] | approximately four times higher | approximately half |  | approximately 680 nm |  |
| CN(C)c1ccc(/C=C/C=C/C2=N[C@@H](C(=O)O)CS2)nc1 [structural formula (c)] |  |  |  |  | roughly 670 nm |
